Data as given in ChEMBL document CHEMBL1121944, “Conformation-activity study of 4-phenylpiperidine analgesics” (1982).

Columns and labels:
[1] = Analgesic activity was determined; assay type: functional
[2] = Relative potency was determined to 3-dimethyl prodine after brain penetration; assay type: functional

SMILES | ED50 [1] [mg/kg] | Relative potency [2]
CCC(=O)O[C@@]1(c2ccccc2)CCN(C)C[C@@H]1C [BETAPRODINE] | 5.21 | 1.77
CCC(=O)OC1(c2ccccc2)CCN(C)CC1C (stereo unspecified) [ALPHAPRODINE] | 1.45 | 1.24
CCC(=O)OC1(c2ccccc2)CCN(C)CC1 | 1 | 1
